From patent publication US12448375B2, “Kinase inhibitors for the treatment of neurodegenerative diseases” (Ohio State Innovation Foundation, priority 2019, dated 2025)

Legend:
Assay type in all cases: biochemical
Conditions in all cases: HotSpot radiometric assay, 33P-ATP
JNK1 = target: T1, JNK1 (Homo sapiens, UniProt P45983); assay: HotSpot Kinase Assay, JNK1
T1 construct: purchased Reaction Biology Corp
Experimental: (§1) The anti-JNK3 activity of compounds prepared as in the previous examples was evaluated using a Reaction Biology Corp. HotSpot Kinase Assay. Base reaction buffer was 20 mM HEPES (4-(2-hydroxyethyl)-1-piperazineethanesulfonic acid) at pH 7.5 with 10 mM MgCl2, 1 mM EGTA (ethylene glycol-bis(β-aminoethyl ether)-N,N,N′,N′-tetracetic acid), 0.02% Brij™ 35, 0.02 mg/mL BSA (bovine serum albumin), 0.1 mM Na3VO4, 2 mM DTT (dithiothreitol), and 1% DMSO. Required cofactors were added individually to each kinase reaction.
(§2) Activity against related enzymes JNK1 and P38a was further assessed using the same assay.

JNK3 = target: T2, JNK3 (Homo sapiens, UniProt P53779); assay: HotSpot Kinase Assay (Reaction Biology Corp.), anti-JNK3 activity
T2 construct: purchased Reaction Biology Corp
T2 sequence (P53779 whole entry): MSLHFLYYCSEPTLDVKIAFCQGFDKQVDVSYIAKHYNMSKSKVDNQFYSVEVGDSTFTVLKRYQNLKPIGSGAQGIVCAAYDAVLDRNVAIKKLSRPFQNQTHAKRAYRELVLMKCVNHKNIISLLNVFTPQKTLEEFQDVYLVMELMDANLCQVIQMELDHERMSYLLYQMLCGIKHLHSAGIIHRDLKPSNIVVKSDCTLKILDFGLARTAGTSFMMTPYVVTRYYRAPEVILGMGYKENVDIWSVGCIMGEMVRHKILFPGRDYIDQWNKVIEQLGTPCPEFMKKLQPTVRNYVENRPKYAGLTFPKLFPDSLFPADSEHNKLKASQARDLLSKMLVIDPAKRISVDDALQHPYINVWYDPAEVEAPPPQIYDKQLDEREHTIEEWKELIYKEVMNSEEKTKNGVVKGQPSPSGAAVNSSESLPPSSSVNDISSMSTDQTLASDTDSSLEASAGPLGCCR
Experimental: as §1, §2

p38a = target: T3, p38a (Homo sapiens, UniProt Q16539); assay: HotSpot Kinase Assay, P38a
T3 construct: purchased Reaction Biology Corp
T3 sequence (Q16539 whole entry): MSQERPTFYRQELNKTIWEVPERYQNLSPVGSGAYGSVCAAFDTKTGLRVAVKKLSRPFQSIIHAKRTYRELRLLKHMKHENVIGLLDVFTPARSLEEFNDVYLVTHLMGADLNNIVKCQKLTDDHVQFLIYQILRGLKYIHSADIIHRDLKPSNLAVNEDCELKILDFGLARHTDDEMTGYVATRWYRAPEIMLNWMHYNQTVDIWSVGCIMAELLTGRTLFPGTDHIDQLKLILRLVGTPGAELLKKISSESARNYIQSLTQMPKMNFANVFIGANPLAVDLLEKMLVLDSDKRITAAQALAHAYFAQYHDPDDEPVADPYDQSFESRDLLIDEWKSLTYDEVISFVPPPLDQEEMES
Experimental: as §1, §2

T1 sequence (P45983 whole entry): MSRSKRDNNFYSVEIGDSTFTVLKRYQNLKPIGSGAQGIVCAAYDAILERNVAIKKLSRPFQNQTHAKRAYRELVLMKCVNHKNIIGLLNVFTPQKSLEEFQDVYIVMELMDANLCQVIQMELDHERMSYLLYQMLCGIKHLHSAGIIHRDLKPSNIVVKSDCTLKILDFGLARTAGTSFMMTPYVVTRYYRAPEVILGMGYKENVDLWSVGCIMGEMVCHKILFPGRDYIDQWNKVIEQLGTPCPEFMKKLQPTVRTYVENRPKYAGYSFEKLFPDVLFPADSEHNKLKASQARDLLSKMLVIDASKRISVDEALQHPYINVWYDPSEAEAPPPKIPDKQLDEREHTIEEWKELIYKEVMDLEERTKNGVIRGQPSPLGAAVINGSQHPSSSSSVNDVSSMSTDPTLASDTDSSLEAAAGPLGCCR

Row | Compound | IC50 (JNK1) [nM] | IC50 (JNK3) [nM] | IC50 (p38a) [nM]
1 | COCC(COC)NC(=O)c1cc(-n2ncc3cc(Oc4ccccc4Cl)ncc32)cs1 [Compound 12, 4-(5-(2-chlorophenoxy)-1H-pyrazolo[3,4-c]pyridin-1-yl)-N-(1,3-dimethoxypropan-2-yl)thiophene-2-carboxamide] | > 1000 | 200 to 1000 | > 1000
2 | CC(C)NC(=O)c1cc(-n2ncc3cc(Nc4ccccc4Cl)ncc32)cs1 [Compound 16, 4-(5-((2-chlorophenyl)amino)-1H-pyrazolo[3,4-c]pyridin-1-yl)-N-isopropylthiophene-2-carboxamide] | 200 to 1000 | < 200 | 200 to 1000
3 | COCCNC(=O)c1cc(-n2ncc3cc(Nc4ccccc4Cl)ncc32)cs1 [Compound 17, 4-(5-((2-chlorophenyl)amino)-1H-pyrazolo[3,4-c]pyridin-1-yl)-N-(2-methoxyethyl)thiophene-2-carboxamide] | 200 to 1000 | < 200 | < 200
4 | Cn1cnc(NC(=O)c2cc(-n3ncc4cc(Nc5ccccc5Cl)ncc43)cs2)c1 [Compound 19, 4-(5-((2-chlorophenyl)amino)-1H-pyrazolo[3,4-c]pyridin-1-yl)-N-(1-methyl-1H-imidazol-4-yl)thiophene-2-carboxamide] |  | < 200 | 
5 | O=C(NC1COC1)c1cc(-n2ncc3cc(Nc4ccccc4Cl)ncc32)cs1 [Compound 20, 4-(5-((2-chlorophenyl)amino)-1H-pyrazolo[3,4-c]pyridin-1-yl)-N-(oxetan-3-yl)thiophene-2-carboxamide] |  | < 200 | 
6 | CN1CCN=C1NC(=O)c1cc(-n2ncc3cc(Nc4ccccc4Cl)ncc32)cs1 [Compound 21, 4-(5-((2-chlorophenyl)amino)-1H-pyrazolo[3,4-c]pyridin-1-yl)-N-(1-methyl-4,5-dihydro-1H-imidazol-2-yl)thiophene-2-carboxamide] |  | < 200 | 
7 | CNC(=O)c1cc(-n2ncc3cc(Nc4cccc(F)c4Cl)ncc32)cs1 [Compound 24, 4-(5-((2-chloro-3-fluorophenyl)amino)-1H-pyrazolo[3,4-c]pyridin-1-yl)-N-methylthiophene-2-carboxamide] |  | < 200 | 
8 | CCNC(=O)c1cc(-n2ncc3cc(Nc4ccccc4Cl)ncc32)cs1 [Compound 26, 4-(5-((2-chlorophenyl)amino)-1H-pyrazolo[3,4-c]pyridin-1-yl)-N-ethylthiophene-2-carboxamide] |  | < 200 | 
9 | O=C(NC1CNC1)c1cc(-n2ncc3nc(Nc4ccccc4Cl)ncc32)cs1 [Compound 27, N-(azetidin-3-yl)-4-(5-((2-chlorophenyl)amino)-1H-pyrazolo[4,3-d]pyrimidin-1-yl)thiophene-2-carboxamide] | > 1000 | > 1000 | > 1000
10 | CNC(=O)c1cc(-n2ncc3nc(Nc4ccccc4Cl)ncc32)cs1 [Compound 41, 4-(5-((2-chlorophenyl)amino)-1H-pyrazolo[4,3-d]pyrimidin-1-yl)-N-methylthiophene-2-carboxamide] |  | 200 to 1000 | 
11 | O=C(NCCCF)c1cc(-n2ncc3nc(Nc4ccccc4Cl)ncc32)cs1 [Compound 42, 4-(5-((2-chlorophenyl)amino)-1H-pyrazolo[4,3-d]pyrimidin-1-yl)-N-(3-fluoropropyl)thiophene-2-carboxamide] |  | < 200 | 
12 | O=C(NC1=NCCO1)c1cc(-n2ncc3cc(Nc4ccccc4Cl)c(F)cc32)cs1 [Compound 43, 4-(5-((2-chlorophenyl)amino)-6-fluoro-1H-indazol-1-yl)-N-(4,5-dihydrooxazol-2-yl)thiophene-2-carboxamide] |  | < 200 | 
13 | N#CCNC(=O)c1cc(-n2ncc3cc(Nc4ccccc4Cl)ccc32)cs1 [Compound 46, 4-(5-((2-chlorophenyl)amino)-1H-indazol-1-yl)-N-(cyanomethyl)thiophene-2-carboxamide] |  | < 200 | 
14 | Cn1cnc(NC(=O)c2cc(-n3ncc4nc(Nc5ccccc5Cl)ccc43)cs2)c1 [Compound 57, 4-(5-((2-chlorophenyl)amino)-1H-pyrazolo[4,3-b]pyridin-1-yl)-N-(1-methyl-1H-imidazol-4-yl)thiophene-2-carboxamide] |  | < 200 | 
15 | Cn1ccnc1NC(=O)c1cc(-n2ncc3nc(Nc4ccccc4Cl)ccc32)cs1 [Compound 59, 4-(5-((2-chlorophenyl)amino)-1H-pyrazolo[4,3-b]pyridin-1-yl)-N-(1-methyl-1H-imidazol-2-yl)thiophene-2-carboxamide] |  | 200 to 1000 | 
16 | CN1C[C@@H](NC(=O)c2cc(-n3ncc4nc(Nc5ccccc5Cl)ccc43)cs2)CC1=O [Compound 60, (S)-4-(5-((2-chlorophenyl)amino)-1H-pyrazolo[4,3-b]pyridin-1-yl)-N-(1-methyl-5-oxopyrrolidin-3-yl)thiophene-2-carboxamide] |  | < 200 | 
17 | Cn1cnc(NC(=O)c2cc(-n3ncc4cc(Nc5ccccc5Cl)cnc43)cs2)c1 [Compound 66, 4-(5-((2-chlorophenyl)amino)-1H-pyrazolo[3,4-b]pyridin-1-yl)-N-(1-methyl-1H-imidazol-4-yl)thiophene-2-carboxamide] |  | < 200 | 
18 | Cn1ccnc1NC(=O)c1cc(-n2ncc3cc(Nc4ccccc4Cl)cnc32)cs1 [Compound 67, 4-(5-((2-chlorophenyl)amino)-1H-pyrazolo[3,4-b]pyridin-1-yl)-N-(1-methyl-1H-imidazol-2-yl)thiophene-2-carboxamide] |  | < 200 | 

Continued, values first:

Row | IC50 (JNK1) [nM] | IC50 (JNK3) [nM] | IC50 (p38a) [nM] | Compound
19 | > 1000 | < 200 | > 1000 | CC(C)NC(=O)c1cc(-n2ncc3cc(Oc4ccccc4Cl)ncc32)cs1 [Compound 7, 4-(5-(2-chlorophenoxy)-1H-pyrazolo[3,4-c]pyridine-1-yl)-N-isopropylthiophene-2-carboxamide]
20 | > 1000 | < 200 | 200 to 1000 | O=C(NC1CN(C2CC2)C1)c1cc(-n2ncc3cc(Oc4ccccc4Cl)ccc32)cs1 [Compound 10, 4-(5-(2-chlorophenoxy)-1H-indazol-1-yl)-N-(1-cyclopropylazetidin-3-yl)thiophene-2-carboxamide]
21 | > 1000 | < 200 | > 1000 | O=C(NC1COC1)c1cc(-n2ncc3cc(Oc4ccccc4Cl)ccc32)cs1 [Compound 11, 4-(5-(2-chlorophenoxy)-1H-indazol-1-yl)-N-(oxetan-3-yl)thiophene-2-carboxamide]
22 | > 1000 | < 200 | 200 to 1000 | [2H]C([2H])([2H])N1CC[C@@H](NC(=O)c2cc(-n3ncc4cc(Oc5ccccc5Cl)ccc43)cs2)C1 [Compound 13, (R)-4-(5-(2-chlorophenoxy)-1H-indazol-1-yl)-N-(1-(methyl-d3)pyrrolidin-3-yl)thiophene-2-carboxamide]
23 | > 1000 | < 200 | > 1000 | COCCNC(=O)c1cc(-n2ncc3cc(Oc4ccccc4Cl)ncc32)cs1 [Compound 14, 4-(5-(2-chlorophenoxy)-1H-pyrazolo[3,4-c]pyridin-1-yl)-N-(2-methoxyethyl)thiophene-2-carboxamide]
24 |  | < 200 |  | CNC(=O)c1cc(-n2ncc3cc(Oc4ccccc4Cl)ncc32)cs1 [Compound 15, 4-(5-(2-chlorophenoxy)-1H-pyrazolo[3,4-c]pyridin-1-yl)-N-methylthiophene-2-carboxamide]
25 |  | < 200 |  | CCNC(=O)c1cc(-n2ncc3cc(Oc4ccccc4Cl)ncc32)cs1 [Compound 18, 4-(5-(2-chlorophenoxy)-1H-pyrazolo[3,4-c]pyridin-1-yl)-N-ethylthiophene-2-carboxamide]
26 |  | < 200 |  | CC(=O)N1CC(NC(=O)c2cc(-n3ncc4cc(Nc5ccccc5Cl)ncc43)cs2)C1 [Compound 22, N-(1-acetylazetidin-3-yl)-4-(5-((2-chlorophenyl)amino)-1H-pyrazolo[3,4-c]pyridin-1-yl)thiophene-2-carboxamide]
27 |  | 200 to 1000 |  | O=C(NC1COC1)c1cc(-n2ncc3cc(Oc4ccccc4Cl)ncc32)cs1 [Compound 23, 4-(5-(2-chlorophenoxy)-1H-pyrazolo[3,4-c]pyridin-1-yl)-N-(oxetan-3-yl)thiophene-2-carboxamide]
28 |  | < 200 |  | CC(=O)N1CC(NC(=O)c2cc(-n3ncc4cc(Nc5ccccc5Cl)ccc43)cs2)C1 [Compound 29, N-(1-acetylazetidin-3-yl)-4-(5-((2-chlorophenyl)amino)-1H-indazol-1-yl)thiophene-2-carboxamide]
29 | < 200 | < 200 | < 200 | O=C(NC1CC1)c1cc(-n2ncc3cc(Nc4ccccc4Cl)c(F)cc32)cs1 [Compound 31, 4-(5-((2-chlorophenyl)amino)-6-fluoro-1H-indazol-1-yl)-N-cyclopropylthiophene-2-carboxamide]
30 |  | < 200 |  | COC(=O)N1CC(NC(=O)c2cc(-n3ncc4cc(Nc5ccccc5Cl)ccc43)cs2)C1 [Compound 33, Methyl 3-(4-(5-((2-chlorophenyl)amino)-1H-indazol-1-yl)thiophene-2-carboxamido)azetidine-1-carboxylate]
31 |  | < 200 |  | CN1CCN=C1NC(=O)c1cc(-n2ncc3cc(Nc4ccccc4Cl)ccc32)cs1 [Compound 45, 4-(5-((2-chlorophenyl)amino)-1H-indazol-1-yl)-N-(1-methyl-4,5-dihydro-1H-imidazol-2-yl)thiophene-2-carboxamide]
32 |  | < 200 |  | O=C(N[C@H]1CCOC1)c1cc(-n2ncc3nc(Nc4ccccc4Cl)ccc32)cs1 [Compound 51, (S)-4-(5-((2-chlorophenyl)amino)-1H-pyrazolo[4,3-b]pyridin-1-yl)-N-(tetrahydrofuran-3-yl)thiophene-2-carboxamide]
33 |  | < 200 |  | CCNC(=O)c1cc(-n2ncc3cc(Oc4ccccc4Cl)cnc32)cs1 [Compound 73, 4-(5-(2-chlorophenoxy)-1H-pyrazolo[3,4-b]pyridin-1-yl)-N-ethylthiophene-2-carboxamide]
